The kinase profiling compilation of Christmann-Franck et al. (2016)

Assays:
Assay in all cases: KINOMEscan competition binding
Settings in all cases: compound 10.0 µM
SGK1 (human) = SGK1 (human) (UniProt O00141)
BRSK1 (human) = BRSK1 (human) (UniProt Q8TDC3)
STK11 (human) = STK11 (human) (UniProt Q15831)
CDK2 (human) = CDK2 (human) (UniProt P24941)
PLK4 (human) = PLK4 (human) (UniProt O00444)
[1] = tested on: KIT (human), P10721 [V559D/T670I]
AAK1 (human) = AAK1 (human) (UniProt Q2M2I8)
KDR (human) = KDR (human) (UniProt P35968)
Chain of KDR (human) (P35968 whole entry, looked up): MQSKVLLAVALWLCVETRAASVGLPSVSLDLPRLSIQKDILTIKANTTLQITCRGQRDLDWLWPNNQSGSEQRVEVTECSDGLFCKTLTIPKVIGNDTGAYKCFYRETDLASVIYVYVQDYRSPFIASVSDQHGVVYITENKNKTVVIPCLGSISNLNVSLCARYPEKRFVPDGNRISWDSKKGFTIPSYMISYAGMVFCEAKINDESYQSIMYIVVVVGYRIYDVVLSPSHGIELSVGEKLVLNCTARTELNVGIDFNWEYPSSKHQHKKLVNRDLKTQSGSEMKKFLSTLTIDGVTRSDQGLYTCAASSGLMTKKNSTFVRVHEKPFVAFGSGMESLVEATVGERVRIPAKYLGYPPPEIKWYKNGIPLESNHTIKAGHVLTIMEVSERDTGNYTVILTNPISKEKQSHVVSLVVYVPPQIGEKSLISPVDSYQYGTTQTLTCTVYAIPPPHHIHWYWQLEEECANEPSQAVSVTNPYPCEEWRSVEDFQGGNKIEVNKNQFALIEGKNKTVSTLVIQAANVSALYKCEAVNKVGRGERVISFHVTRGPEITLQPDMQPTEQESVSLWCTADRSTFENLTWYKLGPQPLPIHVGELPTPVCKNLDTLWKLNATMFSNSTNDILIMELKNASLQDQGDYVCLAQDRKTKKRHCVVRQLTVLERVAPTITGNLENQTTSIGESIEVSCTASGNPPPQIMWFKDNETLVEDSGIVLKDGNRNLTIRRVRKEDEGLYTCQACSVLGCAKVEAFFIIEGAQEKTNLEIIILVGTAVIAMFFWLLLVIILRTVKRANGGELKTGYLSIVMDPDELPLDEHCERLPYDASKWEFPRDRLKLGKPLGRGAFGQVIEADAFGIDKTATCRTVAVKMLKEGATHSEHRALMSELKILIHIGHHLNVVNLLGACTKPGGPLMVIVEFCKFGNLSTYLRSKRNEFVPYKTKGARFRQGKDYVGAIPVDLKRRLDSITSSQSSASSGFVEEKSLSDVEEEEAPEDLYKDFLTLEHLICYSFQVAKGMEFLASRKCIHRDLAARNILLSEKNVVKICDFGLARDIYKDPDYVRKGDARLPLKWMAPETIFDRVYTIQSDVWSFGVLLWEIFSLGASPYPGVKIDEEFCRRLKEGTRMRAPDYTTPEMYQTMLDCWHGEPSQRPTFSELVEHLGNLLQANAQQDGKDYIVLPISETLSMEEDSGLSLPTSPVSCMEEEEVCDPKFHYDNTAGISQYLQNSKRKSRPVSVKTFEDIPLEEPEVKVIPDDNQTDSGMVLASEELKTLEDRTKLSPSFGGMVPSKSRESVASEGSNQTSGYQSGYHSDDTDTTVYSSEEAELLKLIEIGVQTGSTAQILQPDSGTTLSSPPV

MAPK10 (human) = MAPK10 (human) (UniProt P53779)
PIM1 (human) = PIM1 (human) (UniProt P11309)
SRPK3 (human) = SRPK3 (human) (UniProt Q9UPE1)
STK39 (human) = STK39 (human) (UniProt Q9UEW8)
CDK19 (human) = CDK19 (human) (UniProt Q9BWU1)
ALK (human) = ALK (human) (UniProt Q9UM73)
GRK1 (human) = GRK1 (human) (UniProt Q15835)
BRAF (human) = BRAF (human) (UniProt P15056)
Chain of BRAF (human) (P15056 whole entry, looked up): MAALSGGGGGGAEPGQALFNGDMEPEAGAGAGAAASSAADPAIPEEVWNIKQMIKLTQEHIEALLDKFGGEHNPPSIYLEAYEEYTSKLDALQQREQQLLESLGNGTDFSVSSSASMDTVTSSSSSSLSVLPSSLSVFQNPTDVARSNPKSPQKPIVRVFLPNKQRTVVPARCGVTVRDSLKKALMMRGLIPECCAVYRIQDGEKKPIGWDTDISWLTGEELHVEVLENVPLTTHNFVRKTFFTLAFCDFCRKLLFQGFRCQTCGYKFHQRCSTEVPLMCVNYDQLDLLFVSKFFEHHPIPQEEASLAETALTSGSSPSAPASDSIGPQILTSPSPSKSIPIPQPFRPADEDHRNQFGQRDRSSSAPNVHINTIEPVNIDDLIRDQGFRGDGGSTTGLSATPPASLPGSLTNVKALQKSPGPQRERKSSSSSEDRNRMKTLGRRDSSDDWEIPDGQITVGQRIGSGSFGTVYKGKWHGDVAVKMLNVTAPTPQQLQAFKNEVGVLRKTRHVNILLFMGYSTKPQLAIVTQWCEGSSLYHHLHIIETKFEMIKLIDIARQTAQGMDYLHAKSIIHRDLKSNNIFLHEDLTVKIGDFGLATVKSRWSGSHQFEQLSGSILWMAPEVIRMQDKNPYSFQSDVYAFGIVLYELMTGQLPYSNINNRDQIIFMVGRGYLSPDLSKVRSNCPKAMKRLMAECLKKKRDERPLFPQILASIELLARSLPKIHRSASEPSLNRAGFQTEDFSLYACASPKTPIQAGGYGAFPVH

MAPK11 (human) = MAPK11 (human) (UniProt Q15759)
Chain of MAPK11 (human) (Q15759 whole entry, looked up): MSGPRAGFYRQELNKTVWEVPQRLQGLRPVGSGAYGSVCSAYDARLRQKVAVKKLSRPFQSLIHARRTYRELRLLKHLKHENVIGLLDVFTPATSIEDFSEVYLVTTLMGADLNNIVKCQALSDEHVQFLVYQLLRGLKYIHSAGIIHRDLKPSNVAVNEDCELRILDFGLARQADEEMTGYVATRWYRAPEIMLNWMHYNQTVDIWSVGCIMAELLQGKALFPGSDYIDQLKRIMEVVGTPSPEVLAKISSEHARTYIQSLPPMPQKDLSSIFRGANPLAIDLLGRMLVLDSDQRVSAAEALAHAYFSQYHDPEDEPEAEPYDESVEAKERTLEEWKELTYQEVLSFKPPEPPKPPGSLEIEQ

AKT1 (human) = AKT1 (human) (UniProt P31749)
Chain of AKT1 (human) (P31749 whole entry, looked up): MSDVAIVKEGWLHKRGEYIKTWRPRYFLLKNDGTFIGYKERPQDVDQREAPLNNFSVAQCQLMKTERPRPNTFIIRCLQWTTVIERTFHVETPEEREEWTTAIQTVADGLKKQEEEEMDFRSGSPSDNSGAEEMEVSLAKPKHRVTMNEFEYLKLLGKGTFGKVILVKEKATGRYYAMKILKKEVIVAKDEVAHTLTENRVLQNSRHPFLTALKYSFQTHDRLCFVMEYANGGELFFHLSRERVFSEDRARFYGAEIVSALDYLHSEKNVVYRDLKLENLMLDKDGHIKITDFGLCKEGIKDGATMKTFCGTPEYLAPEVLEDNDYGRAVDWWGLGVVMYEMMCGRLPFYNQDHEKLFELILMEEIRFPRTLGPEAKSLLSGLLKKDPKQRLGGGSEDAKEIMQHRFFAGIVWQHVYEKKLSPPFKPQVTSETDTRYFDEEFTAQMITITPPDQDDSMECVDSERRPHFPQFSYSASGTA

MAP3K5 (human) = MAP3K5 (human) (UniProt Q99683)
PIK3C2B (human) = PIK3C2B (human) (UniProt O00750)
[2] = tested on: ABL1 (human), P00519 [T315I]
FGFR3 (human) = FGFR3 (human) (UniProt P22607)
HIPK1 (human) = HIPK1 (human) (UniProt Q86Z02)
PIP5K1A (human) = PIP5K1A (human) (UniProt Q99755)
NEK6 (human) = NEK6 (human) (UniProt Q9HC98)
CDK9 (human) = CDK9 (human) (UniProt P50750)
CDK14 (human) = CDK14 (human) (UniProt O94921)
Chain of CDK14 (human) (O94921 whole entry, looked up): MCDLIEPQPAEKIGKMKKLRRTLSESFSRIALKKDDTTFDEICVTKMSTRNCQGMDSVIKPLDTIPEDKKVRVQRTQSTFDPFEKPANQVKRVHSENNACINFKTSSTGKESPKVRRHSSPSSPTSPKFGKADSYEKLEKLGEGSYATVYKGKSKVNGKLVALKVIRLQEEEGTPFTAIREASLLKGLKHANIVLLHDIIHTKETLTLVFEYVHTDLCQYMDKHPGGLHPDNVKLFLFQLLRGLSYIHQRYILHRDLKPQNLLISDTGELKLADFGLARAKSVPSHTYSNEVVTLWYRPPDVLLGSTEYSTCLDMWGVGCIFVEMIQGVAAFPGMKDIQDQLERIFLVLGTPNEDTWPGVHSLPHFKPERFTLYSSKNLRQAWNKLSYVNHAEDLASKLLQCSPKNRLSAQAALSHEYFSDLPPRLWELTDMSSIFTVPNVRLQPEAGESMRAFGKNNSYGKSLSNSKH

INSR (human) = INSR (human) (UniProt P06213)
CSNK1D (human) = CSNK1D (human) (UniProt P48730)
DYRK1B (human) = DYRK1B (human) (UniProt Q9Y463)
TLK1 (human) = TLK1 (human) (UniProt Q9UKI8)
CHEK1 (human) = CHEK1 (human) (UniProt O14757)
IKBKB (human) = IKBKB (human) (UniProt O14920)
IGF1R (human) = IGF1R (human) (UniProt P08069)
[3] = tested on: KIT (human), P10721 [D816V]
Chain of KIT (human), P10721 [D816V] (P10721 whole entry D816V, looked up): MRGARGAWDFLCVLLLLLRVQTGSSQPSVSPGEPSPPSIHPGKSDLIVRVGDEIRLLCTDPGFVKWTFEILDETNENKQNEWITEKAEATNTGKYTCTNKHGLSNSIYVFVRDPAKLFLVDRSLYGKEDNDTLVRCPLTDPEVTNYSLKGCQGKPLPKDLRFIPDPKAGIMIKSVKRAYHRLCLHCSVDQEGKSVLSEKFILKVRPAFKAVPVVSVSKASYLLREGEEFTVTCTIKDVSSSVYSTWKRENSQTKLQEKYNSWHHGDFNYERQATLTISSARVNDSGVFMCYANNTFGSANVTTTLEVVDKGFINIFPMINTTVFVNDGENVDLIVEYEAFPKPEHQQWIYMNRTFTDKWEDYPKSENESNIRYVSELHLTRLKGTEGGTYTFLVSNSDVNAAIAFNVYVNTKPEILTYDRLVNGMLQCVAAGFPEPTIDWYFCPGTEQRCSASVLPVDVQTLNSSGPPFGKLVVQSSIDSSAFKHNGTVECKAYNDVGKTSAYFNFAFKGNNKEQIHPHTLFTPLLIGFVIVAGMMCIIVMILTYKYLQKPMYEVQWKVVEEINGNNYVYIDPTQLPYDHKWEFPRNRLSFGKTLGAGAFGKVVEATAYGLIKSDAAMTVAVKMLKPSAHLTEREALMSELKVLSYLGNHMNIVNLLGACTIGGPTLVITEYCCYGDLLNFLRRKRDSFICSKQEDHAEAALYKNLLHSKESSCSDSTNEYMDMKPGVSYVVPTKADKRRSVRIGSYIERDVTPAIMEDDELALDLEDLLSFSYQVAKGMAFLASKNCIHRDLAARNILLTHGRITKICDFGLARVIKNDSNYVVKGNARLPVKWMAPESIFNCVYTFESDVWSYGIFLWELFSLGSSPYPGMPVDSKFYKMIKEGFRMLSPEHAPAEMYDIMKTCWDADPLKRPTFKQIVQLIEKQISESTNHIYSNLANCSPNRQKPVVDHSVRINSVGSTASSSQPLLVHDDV

MAP3K12 (human) = MAP3K12 (human) (UniProt Q12852)
BTK (human) = BTK (human) (UniProt Q06187)
PLK1 (human) = PLK1 (human) (UniProt P53350)
CDK7 (human) = CDK7 (human) (UniProt P50613)
Chain of CDK7 (human) (P50613 whole entry, looked up): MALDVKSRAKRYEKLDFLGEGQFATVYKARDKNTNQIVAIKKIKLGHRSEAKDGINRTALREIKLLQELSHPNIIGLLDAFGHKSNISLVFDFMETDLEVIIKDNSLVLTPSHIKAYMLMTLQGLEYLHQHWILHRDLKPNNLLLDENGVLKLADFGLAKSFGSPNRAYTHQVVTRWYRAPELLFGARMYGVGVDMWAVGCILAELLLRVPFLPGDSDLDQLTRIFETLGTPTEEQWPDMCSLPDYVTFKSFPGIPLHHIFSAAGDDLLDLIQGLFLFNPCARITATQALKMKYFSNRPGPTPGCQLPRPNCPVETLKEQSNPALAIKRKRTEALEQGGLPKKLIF

CDK3 (human) = CDK3 (human) (UniProt Q00526)
FLT3 (human) = FLT3 (human) (UniProt P36888)

Chain of KIT (human), P10721 [V559D/T670I] (P10721 whole entry V559D/T670I, looked up): as the sequence (P10721 whole entry D816V, looked up) above, with V559D, T670I, V816D counted along it

O=C(Nc1ccc(Oc2ncnc3[nH]ncc23)cc1)Nc1ccc(Cl)c(C(F)(F)F)c1
kinase still bound, per cent of control (SGK1 (human)): 88%
kinase still bound, per cent of control (BRSK1 (human)): 86%
kinase still bound, per cent of control (STK11 (human)): 97%
kinase still bound, per cent of control (CDK2 (human)): 64%
kinase still bound, per cent of control (PLK4 (human)): 52%
kinase still bound, per cent of control [1]: 0.15%
kinase still bound, per cent of control (AAK1 (human)): 85%
kinase still bound, per cent of control (KDR (human)): 0%
kinase still bound, per cent of control (MAPK10 (human)): 74%
kinase still bound, per cent of control (PIM1 (human)): 90%
kinase still bound, per cent of control (SRPK3 (human)): 100%
kinase still bound, per cent of control (STK39 (human)): 72%
kinase still bound, per cent of control (CDK19 (human)): 0.35%
kinase still bound, per cent of control (ALK (human)): 57%
kinase still bound, per cent of control (GRK1 (human)): 89%
kinase still bound, per cent of control (BRAF (human)): 3.8%
kinase still bound, per cent of control (MAPK11 (human)): 1.2%
kinase still bound, per cent of control (AKT1 (human)): 100%
kinase still bound, per cent of control (MAP3K5 (human)): 90%
kinase still bound, per cent of control (PIK3C2B (human)): 80%
kinase still bound, per cent of control [2]: 46%
kinase still bound, per cent of control (FGFR3 (human)): 80%
kinase still bound, per cent of control (HIPK1 (human)): 52%
kinase still bound, per cent of control (PIP5K1A (human)): 73%
kinase still bound, per cent of control (NEK6 (human)): 100%
kinase still bound, per cent of control (CDK9 (human)): 56%
kinase still bound, per cent of control (CDK14 (human)): 23%
kinase still bound, per cent of control (INSR (human)): 84%
kinase still bound, per cent of control (CSNK1D (human)): 88%
kinase still bound, per cent of control (DYRK1B (human)): 96%
kinase still bound, per cent of control (TLK1 (human)): 100%
kinase still bound, per cent of control (CHEK1 (human)): 100%
kinase still bound, per cent of control (IKBKB (human)): 91%
kinase still bound, per cent of control (IGF1R (human)): 100%
kinase still bound, per cent of control [3]: 1.7%
kinase still bound, per cent of control (MAP3K12 (human)): 100%
kinase still bound, per cent of control (BTK (human)): 96%
kinase still bound, per cent of control (PLK1 (human)): 100%
kinase still bound, per cent of control (CDK7 (human)): 11%
kinase still bound, per cent of control (CDK3 (human)): 44%
kinase still bound, per cent of control (FLT3 (human)): 0%
